pIC50: −log10 of the molar value.
These compounds were tested against T1, human chemokine receptor 2 isoform B (Homo sapiens, UniProt P41597) (assay: Calcium mobilization assay (FLIPR, antagonist activity against MCP-1)). Settings: Ca mobilisation assay, CHOK1-CCR2B-A5 cells, inhibition of calcium increase induced by 20 nM MCP-1.
T1 construct: host or cells: CHOK1-CCR2B-A5 cells (CHO-K1)
T1 sequence (P41597 1-360 isoform P41597-2): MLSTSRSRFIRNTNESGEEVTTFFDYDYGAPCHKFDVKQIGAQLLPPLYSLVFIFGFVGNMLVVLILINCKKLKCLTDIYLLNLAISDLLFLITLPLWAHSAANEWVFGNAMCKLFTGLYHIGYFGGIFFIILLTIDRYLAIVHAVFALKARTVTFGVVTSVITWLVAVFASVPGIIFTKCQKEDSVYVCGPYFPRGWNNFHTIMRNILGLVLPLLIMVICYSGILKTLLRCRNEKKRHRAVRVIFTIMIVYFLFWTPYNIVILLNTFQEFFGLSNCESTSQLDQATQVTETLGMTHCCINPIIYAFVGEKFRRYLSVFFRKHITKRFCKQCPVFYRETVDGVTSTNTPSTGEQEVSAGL
Type: cell-based
Method: Calcium Mobilization Assay
CHOK1-CCR2B-A5 cells (from Euroscreen) stably overexpressing the human chemokine receptor 2 isoform B were cultured in Nutrient Hams F12 medium supplemented with 5% FBS, 100 U/ml penicillin, 100 μg/ml streptomycin, 400 μg/ml G418 and 5 μg/ml puromycin.
For the assay cells were grown overnight in 384-well black clear flat bottom polystyrene plates (Costar) at 37° C. at 5% CO2. After washing with DMEM, 20 mM Hepes, 2.5 mM probenecid, 0.1% BSA (DMEM assay buffer) cells were loaded with 4 μM Fluo-4 in the same DMEM assay buffer for 2 hours at 30° C. Excess dye was removed and cells were washed with DMEM assay buffer. 384-well compound plates were prepared with DMEM assay buffer/0.5% DMSO with or without various concentrations of test compounds. Usually compounds were tested for agonist and antagonist activity.
Test compounds were added to the assay plate and agonist activity was monitored as fluorescence for 80 seconds with a FLIPR (488 nm excitation; 510-570 nm emission; Molecular Devices). After 20-30 min. of incubation at 30° C., 20 nM MCP-1 (R&D; Roche) was added and fluorescence was monitored again for 80 seconds. Increases in intracellular calcium are reported as maximum fluorescence after agonist exposure minus basal fluorescence before exposure. Antagonist activity is indicated as inhibitor concentration required for 50% inhibition of specific calcium increases.
With COC(=O)C(CC(=O)N1C[C@@H](C)C[C@H](O)C1)N1CCN(C(=O)/C=C/c2ccc(Cl)c(Cl)c2)CCC1=O (stereo partly drawn) [Example 9, (R,S)-2-{4-[(E)-3-(3,4-Dichloro-phenyl)-acryloyl]-7-oxo-[1,4]diazepan-1-yl}-4-((3S,5S)-3-hydroxy-5-methyl-piperidin-1-yl)-4-oxo-butyric acid methyl ester] the pIC50 was 5.63. For COC(=O)C(CC(=O)N1CCC2(CC2)[C@H](O)C1)N1CCN(C(=O)/C=C/c2cccc(Cl)c2)CCC1=O (stereo partly drawn) [Example 10], the pIC50 was 6.15. O=C(/C=C/c1cccc(Cl)c1)N1CCC(=O)N(C(CO)CC(=O)N2CCC3(CC3)[C@H](O)C2)CC1 (stereo partly drawn) [Example 11, 1-[(E)-3-(3-Chloro-phenyl)-acryloyl]-4-[(R,S)-3-((S)-4-hydroxy-6-aza-spiro[2.5]oct-6-yl)-1-hydroxymethyl-3-oxo-propyl]-[1,4]diazepan-5-one] gave a pIC50 of 6.33. For COCC(CC(=O)N1CCC2(CC2)[C@H](O)C1)N1CCN(C(=O)/C=C/c2cccc(Cl)c2)CCC1=O (stereo partly drawn) [Example 13, 1-[(E)-3-(3-Chloro-phenyl)-acryloyl]-4-[(R,S)-3-((S)-4-hydroxy-6-aza-spiro[2.5]oct-6-yl)-1-methoxymethyl-3-oxo-propyl]-[1,4]diazepan-5-one], the pIC50 was 6.11. For CN(C)C(=O)[C@@H](CCO)N1CCN(C(=O)/C=C/c2cccc(Cl)c2)CCC1=O [Example 14, (R)-2-{4-[(E)-3-(3-Chloro-phenyl)-acryloyl]-7-oxo-[1,4]diazepan-1-yl}-4-hydroxy-N,N-dimethyl-butyramide], the pIC50 was 6.04. C[C@H]1C(=O)N(CCC(=O)N2CCC3(CC3)[C@H](O)C2)CCN1C(=O)Nc1ccc(Cl)c(Cl)c1 [Example 15, (S)-4-[3-((S)-4-Hydroxy-6-aza-spiro[2.5]oct-6-yl)-3-oxo-propyl]-2-methyl-3-oxo-piperazine-1-carboxylic acid (3,4-dichloro-phenyl)-amide] gave a pIC50 of 6.62. In the case of C[C@H]1C(=O)N(CCC(=O)N2CCCCC2)CCN1C(=O)Nc1ccc(Cl)c(Cl)c1 [Example 16, (S)-2-Methyl-3-oxo-4-(3-oxo-3-piperidin-1-yl-propyl)-piperazine-1-carboxylic acid (3,4-dichloro-phenyl)-amide], the pIC50 was 5.39. With C[C@H]1C(=O)N(CCC(=O)N2CCCC(O)C2)CCN1C(=O)Nc1ccc(Cl)c(Cl)c1 (stereo partly drawn) [Example 17, (S)-4-[3-((R,S)-3-Hydroxy-piperidin-1-yl)-3-oxo-propyl]-2-methyl-3-oxo-piperazine-1-carboxylic acid (3,4-dichloro-phenyl)-amide] the pIC50 was 5.50. C[C@H]1C(=O)N(CCC(=O)N2CCC(C)(O)CC2)CCN1C(=O)Nc1ccc(Cl)c(Cl)c1 [Example 18, (S)-4-[3-(4-Hydroxy-4-methyl-piperidin-1-yl)-3-oxo-propyl]-2-methyl-3-oxo-piperazine-1-carboxylic acid (3,4-dichloro-phenyl)-amide] showed a pIC50 of 5.98. For C[C@H]1C[C@H](O)CN(C(=O)CCN2CCN(C(=O)Nc3ccc(Cl)c(Cl)c3)[C@@H](C)C2=O)C1 [Example 19, (S)-4-[3-((3S,5S)-3-Hydroxy-5-methyl-piperidin-1-yl)-3-oxo-propyl]-2-methyl-3-oxo-piperazine-1-carboxylic acid (3,4-dichloro-phenyl)-amide], the pIC50 was 5.42. For C[C@H]1CCN(C(=O)CCN2CCN(C(=O)Nc3ccc(Cl)c(Cl)c3)[C@@H](C)C2=O)C[C@H]1O [Example 20, (S)-4-[3-((3S,4S)-3-Hydroxy-4-methyl-piperidin-1-yl)-3-oxo-propyl]-2-methyl-3-oxo-piperazine-1-carboxylic acid (3,4-dichloro-phenyl)-amide], the pIC50 was 5.97. For C[C@H]1C(=O)N(CCC(=O)N2CCOCC2)CCN1C(=O)Nc1ccc(Cl)c(Cl)c1 [Example 22, (S)-2-Methyl-4-(3-morpholin-4-yl-3-oxo-propyl)-3-oxo-piperazine-1-carboxylic acid (3,4-dichloro-phenyl)-amide], the pIC50 was 5.51. Compound C[C@H]1C(=O)N(CCC(=O)N2CCC(C(F)(F)F)CC2)CCN1C(=O)Nc1ccc(Cl)c(Cl)c1 [Example 24, (S)-2-Methyl-3-oxo-4-[3-oxo-3-(4-trifluoromethyl-piperidin-1-yl)-propyl]-piperazine-1-carboxylic acid (3,4-dichloro-phenyl)-amide] has a pIC50 of 5.50. For C[C@H]1C(=O)N(CCCC(=O)N2CCC3(CC3)[C@H](O)C2)CCN1C(=O)Nc1ccc(Cl)c(Cl)c1 [Example 25, (S)-4-[4-((S)-4-Hydroxy-6-aza-spiro[2.5]oct-6-yl)-4-oxo-butyl]-2-methyl-3-oxo-piperazine-1-carboxylic acid (3,4-dichloro-phenyl)-amide], the pIC50 was 8.44. For C[C@H]1C(=O)N(CCCC(=O)N2CCC3(CC3)[C@H](O)C2)CCN1C(=O)Nc1cccc(Cl)c1 [Example 26, (S)-4-[4-((S)-4-Hydroxy-6-aza-spiro[2.5]oct-6-yl)-4-oxo-butyl]-2-methyl-3-oxo-piperazine-1-carboxylic acid (3-chloro-phenyl)-amide], the pIC50 was 7.74. C[C@H]1C(=O)N(CCCC(=O)N2CCC3(CC3)[C@H](O)C2)CCN1C(=O)Nc1ccc(Cl)cc1 [Example 27, (S)-4-[4-((S)-4-Hydroxy-6-aza-spiro[2.5]oct-6-yl)-4-oxo-butyl]-2-methyl-3-oxo-piperazine-1-carboxylic acid (4-chloro-phenyl)-amide] was tested, and the pIC50 was 7.07. C[C@H]1C(=O)N(CCCC(=O)N2CCC3(CC3)[C@H](O)C2)CCN1C(=O)Nc1cccc(C(F)(F)F)c1 [Example 28, (S)-4-[4-((S)-4-Hydroxy-6-aza-spiro[2.5]oct-6-yl)-4-oxo-butyl]-2-methyl-3-oxo-piperazine-1-carboxylic acid (3-trifluoromethyl-phenyl)-amide] gave a pIC50 of 7.26. Compound C[C@H]1C(=O)N(CCCC(=O)N2CCC3(CC3)[C@H](O)C2)CCN1C(=O)Nc1ccc(C(F)(F)F)cc1 [Example 29, (S)-4-[4-((S)-4-Hydroxy-6-aza-spiro[2.5]oct-6-yl)-4-oxo-butyl]-2-methyl-3-oxo-piperazine-1-carboxylic acid (4-trifluoromethyl-phenyl)-amide] has a pIC50 of 7.69. C[C@H]1C(=O)N(CCCC(=O)N2CCC3(CC3)[C@H](O)C2)CCN1C(=O)Nc1ccc(OC(F)(F)F)cc1 [Example 30, (S)-4-[4-((S)-4-Hydroxy-6-aza-spiro[2.5]oct-6-yl)-4-oxo-butyl]-2-methyl-3-oxo-piperazine-1-carboxylic acid (4-trifluoromethoxy-phenyl)-amide] gave a pIC50 of 7.69. For C[C@H]1C(=O)N(CCCC(=O)N2CCC3(CC3)[C@H](O)C2)CCN1C(=O)Nc1cccc(OC(F)(F)F)c1 [Example 31, (S)-4-[4-((S)-4-Hydroxy-6-aza-spiro[2.5]oct-6-yl)-4-oxo-butyl]-2-methyl-3-oxo-piperazine-1-carboxylic acid (3-trifluoromethoxy-phenyl)-amide], the pIC50 was 7.29. In the case of C[C@H]1C(=O)N(CCCC(=O)N2CCC3(CC3)[C@H](O)C2)CCN1C(=O)Nc1ccc(Cl)c(C(F)(F)F)c1 [Example 32, (S)-4-[4-((S)-4-Hydroxy-6-aza-spiro[2.5]oct-6-yl)-4-oxo-butyl]-2-methyl-3-oxo-piperazine-1-carboxylic acid (4-chloro-3-trifluoromethyl-phenyl)-amide], the pIC50 was 8.23.
